Data taken from patent publication EP0091090A2, “Bipyridine substituted imidazolidene copper complex and its use in food-producing animals, and bipyridine, 2,2'-(2-imidazolidinylidene) di-copper complex and use in animals” (INTERNATIONAL MINERALS & CHEMICAL CORPORATION, priority 1982, dated 1983).

Key:
[1] = Methane production in growing lambs, respiration calorimetry (Example 4); type: in vivo; conditions: 75 ppm in diet, 3 days treated feed, versus negative control
Text: Animal Test: The object of this test is to determine the effect of the test compound on methane production in growing animals (ruminants). A decrease in methane production is an indication of increased utilization of the animals' feed supply, and possibly an indication of the effectiveness of the compound as a growth promoter.
Test Procedure: The test animals are housed in special respiration calorimetry facilities during the tests so that all metabolic gases can be collected and measured.
Twelve wether lambs, weighing between 20 and 25 kg, were selected from a group of lambs purchased from the California Livestock Marketing Association. The animals were processed according to standard procedures after arrival, and they were ear tagged for identification purposes and weighed prior to being moved to the respiration calorimetry facility.
Experimental Design - The animals were fed 500 grams of a 30% concentrate diet (Table 4) twice daily.
The Formula IV compound was tested in three animals at a level of 75 ppm. The test period was one week. […] Methane production was monitored during this time. […]
Sample Collection and Analysis - Since only the gas data on methane was of interest, urine and feces were collected daily and discarded. […] These samples were analyzed by gas chromatography to get a qualitative measure of […] production. […]

rumen microflora = assay: Batch culture assay for the degradation of starch (Example 3); type: cell-based, steers
Text: The subject Formula ^IV compound was also compared to monensin in another rumen fluid batch culture test as set forth below. The test was designed to screen compounds for inhibition of starch breakdown by the rumen microflora. […] It is considered more desirable to avoid degradation of starch in the rumen so that it is passed on into the abomasum where it can be digested more efficiently. […] Test Procedure: Animals - Mature fistulated steers were maintained on concentrate, roughage, or concentrate/ roughage (50/50) rations. Animals were fed twice daily at 8:00 A.M. and 4:00 P.M.
Culture Assays - Approximately two liters of rumen fluid were collected from fistulated animals with the use of a hand pump. The rumen fluid, collected in a stoppered flask, was then immediately taken to the laboratory for processing. Samples were taken at 8:00 A.M. just prior to the first feeding or at 1:00 P.M. (ca. 4-5 hours after the first feeding). Rumen fluid was strained through six layers of cotton gauze cloth into a flask that was flushed with C02 gas. The filtrate was centrifuged for 5 minutes at 100 rpm in a Sorvall centrifuge to remove large particulate material. The supernatant was again passed through six layers of gauze into a flask under C02 gas and stoppered.
Batch Culture Assay for the Degradation of Starch - Twenty-five ml of rumen fluid prepared as above was added to serum vials (Wheaton Glass, 100 ml capacity) containing 0.25-1.00% final concentration starch as an energy substrate in 25 ml batch culture assay buffer. The serum vials were sealed under C02 gas phase, and incubations were carried out for 20-24 hours at 39°C on a New Brunswick rotary shaker (250 rpm). Each experimental vial was done in triplicate. The corn starch used in degradation experiments was previously washed with distilled water several times, filtered through an 8 micron (47 mm) Millipore filter, and dried at 90°C for 24 hours.
At intervals of 0 and 24 hours, the entire contents in vials were centrifuged at 250 rpm for 5 minutes. The supernatants were carefully removed with a pipet and the remaining "starch pellets" resuspended in water and passed through borosilicate glass microfiber prefilters (Millipore AP 20-047-00). Filters were dried in an oven for 24 hours at 90°C, cooled and then weighed. The amount of starch remaining after 24 hours' incubation was compared with the amount present at 0 hours and the per cent of substrate degraded calculated.

2,2'-(4,5-diphenyl-2H-imidazol-2-ylidene)bispyridine with CuCl2(1/1) [Formula IV Compound]
methane production [1]: significant decrease
starch degraded (rumen microflora; 50 ppm, relative to unincubated control rumen fluid batch culture): 28.7%
per cent starch degraded (rumen microflora; 75 ppm, relative to unincubated control): 13.9%
